In US6890720B1, “Antigens derived from filaggrin and their use for diagnosing rheumatoid polyarthritis” (Biomerieux, priority 1996, dated 2005):
Square brackets hold non-standard residues; d marks the D form. Cit = NC(=O)NCCC[C@H](N)C(=O)O

Assays:
[1] = test system: serum from a patient suffering from RA; assay: Dot-blot of peptides and fil-gst before and after PAD, serum from an RA patient; type: binding, human; settings: serum 1/2000
Procedure: (§1) These 2 peptides, as well as fil-gst, were citrullinated by the action of PAD, for 30 minutes at 50° C., in the same reaction medium as that indicated in Example 2. The specific conditions for each peptide, and for the fil-gst are the following: • peptide S-47-S (SEQ ID NO:3): 4 mU/μmol arginine • peptide S-35-R (SEQ ID NO:4): 2.7 mU/μmol arginine • fil-gst as indicated in Example 2.
(§2) The reactivity of each peptide and that of fil-gst, before and after action of the enzyme, towards the monoclonal antibody AHF4, and the serum from a patient suffering from RA, is compared by dot-blot.
(§3) The operating conditions are the following: • 0.5 μg by deposition of each antigen (peptides, fil-gst, acido-neutral variants of filaggrin (AVF)) • nitrocellulose treatment 45 minutes at 80° C., before immunodetection • RA serum used at the dilution of 1/2000; monoclonal antibody AHF4 used at a concentration of 0.2 μg/ml

[2] = test system: anti-filaggrin autoantibodies (AFAs); assay: ELISA of citrullinated and noncitrullinated peptides coated on microtiter plates; type: binding, human
Procedure: The reactivity of each citrullinated and noncitrullinated peptide was tested respectively in relation to a normal serum, to two sera from RA patients, to anti-filaggrin antibodies (AFAs) purified from a pool of 45 sera from RA patients and to anti-filaggrin antibodies purified from 12 sera from RA patients.
The wells of NUNC MAXISORP microtiter plates were respectively coated with the aid of the noncitrullinated and citrullinated peptides E-12-D (SEQ ID NO:6) and E-12-H (SEQ ID NO:5), diluted to a concentration of 5 μg/ml in a PBS buffer (pH: 7.4) and incubated overnight at 4° C. (final volume: […]). The wells were saturated for 30 minutes at 37° C. in PBS-Tween 20, 0.05%, 2.5% gelatin, 200 μl/well. The negative control serum (normal serum) was diluted 1/120. The antifilaggrin antibodies were diluted in PBS-Tween 20, 0.05%-0.5% gelatin (PBS TG) such that the final anti-filaggrin autoantibody concentrations are those indicated in the accompanying Table I. The negative control serum, the RA sera and the anti-filaggrin antibodies were added (final volume: 100 μl/well) and incubated for 1 hour at 37° C. and overnight at 4° C. Peroxidase-labeled goat antibodies anti-gamma heavy chains of the human immunoglobulins (marketed by the company SOUTHERN BIOTECHNOLOGIES) were added to each well (dilution in PBSTG: 1/2000, final volume: 100 μl/well) and incubated for 1 hour at 37° C.
The results presented in the accompanying Table I are given as a ratio of OD at 492 nm: citrullinated peptide signal/noncitrullinated peptide signal.

[3] = test system: monoclonal antibody AHF4; assay: Dot-blot of peptides and fil-gst before and after PAD, monoclonal antibody AHF4; type: binding; settings: 0.5 μg antigen per deposit, AHF4 0.2 μg/ml
Procedure: as §1, §2, §3

[4] = test system: AFAs present in sera from patients suffering from RA; assay: Immunoblot of fil-gst deiminated in vitro by PAD, revealed with a pool of 5 RA sera; type: binding, human; settings: for recognition by the sera from patients suffering from RA: pool of 5 RA sera 1/2000
Procedure: (§4) The mixture of the 9 fragments is subjected to deimination in vitro by peptidylarginine deiminase.
(§5) A rabbit muscle peptidylarginine deiminase preparation (681 U/ml) marketed by TAKARA BIOMED EUROPE is used according to the protocol recommended by the manufacturer.
(§6) The operating conditions are the following: • reaction medium: 0.1 M Tris-HCl, 10 mM CaCl2, 5 mM DTT, pH 7.4; • enzyme/substrate ratio: 140 mU/μmol of filaggrin containing 10% arginine or 4 mU/μmol of arginine; • incubation: between 0 and 60 min at 50° C.; • termination of the reaction: heating 3 min in LAEMMLI buffer.
(§7) 1 μl of each sample is deposited on an electrophoresis gel (PHAST®-SDS gel 12.5% PHARMACIA), and the electrophoresis is carried out with the PHAST-SYSTEM® apparatus (PHARMACIA), under the conditions recommended by the manufacturer. […] Dermatol. 105, 432, (1995)] at the concentration of 0.2 μg/ml (FIG. 3b).
The results are illustrated by FIG. 3 • Lane 1: BSA (1 hour, 50° C.) • Lane 2: BSA+PAD (1 hour, 50° C.) • Lane 3: fil-gst (1 hour, […]) • Lane 5: fil-gst+PAD (15 minutes, 50° C.) • Lane 6: fil-gst+PAD (30 minutes, 50° C.) • Lane 7: fil-gst+PAD (1 hour, 50° C.) • Lane 8: fil-gst+PAD+inhibitor (1 hour, 50° C.)

[5] = test system: anti-filaggrin monoclonal antibody AHF2; assay: Immunoblot of fil-gst deiminated in vitro by PAD, revealed with monoclonal antibody AHF2; type: binding; settings: AHF2 0.2 μg/ml
Procedure: as §4, §5, §6, §7
The results are illustrated by FIG. 3 • Lane 1: BSA (1 hour, 50° C.) • Lane 2: BSA+PAD (1 hour, 50° C.) • Lane 3: fil-gst (1 hour, 50° C.) • Lane 4: fil-gst+PAD (15 minutes, 50° C.) • Lane 5: fil-gst+PAD (15 minutes, 50° C.) • Lane 6: fil-gst+PAD (30 minutes, 50° C.) • Lane 7: fil-gst+PAD (1 hour, 50° C.) • Lane 8: fil-gst+PAD+inhibitor (1 hour, 50° C.)

[6] = Control serum (normal serum) diluted 1/120
[7] = Pool of AFAs (purified from 45 RA sera), 5 μg/ml
[8] = Pool of AFAs (purified from 45 RA sera), 10 μg/ml
[9] = Pool of AFAs (purified from 45 RA sera), 20 μg/ml
[10] = citrullinated (PAD 30 minutes at 50° C.)
[11] = after citrullination (PAD 30 minutes at 50° C.), 0.5 μg antigen per deposit
[12] = not citrullinated, 0.5 μg antigen per deposit

Molecule | ratio of OD at 492 nm: citrullinated peptide signal/noncitrullinated peptide signal [2, 6] | ratio of OD at 492 nm: citrullinated peptide signal/noncitrullinated peptide signal [2, 7] | ratio of OD at 492 nm: citrullinated peptide signal/noncitrullinated peptide signal [2, 8] | ratio of OD at 492 nm: citrullinated peptide signal/noncitrullinated peptide signal [2, 9] | ratio of OD at 492 nm: citrullinated peptide signal/noncitrullinated peptide signal ([2]; RA1 serum, AFAs 10 μg/ml) | ratio of OD at 492 nm: citrullinated peptide signal/noncitrullinated peptide signal ([2]; RA1 serum, AFAs 20 μg/ml) | ratio of OD at 492 nm: citrullinated peptide signal/noncitrullinated peptide signal ([2]; RA2 serum, AFAs 5 μg/ml) | ratio of OD at 492 nm: citrullinated peptide signal/noncitrullinated peptide signal ([2]; RA2 serum, AFAs 10 μg/ml) | ratio of OD at 492 nm: citrullinated peptide signal/noncitrullinated peptide signal ([2]; RA2 serum, AFAs 20 μg/ml) | recognition by AHF4 [3, 10] | recognition by AHF4 ([3]; not citrullinated) | recognition by the serum from the patient suffering from RA [1, 11] | recognition by the serum from the patient suffering from RA [1, 12] | further results
AVFs: acido-neutral variants of human epidermal filaggrin [reference compound] | – | – | – | – | – | – | – | – | – | – | – | – | – | recognition by the serum from the patient suffering from RA ([1]; natural antigen as such, 0.5 μg per deposit): recognizes
NH2-EQSADSSRHSGSGH-COOH (H-EQSADSS[Cit]HSGSGH-OH) [Peptide E-12-H] | 1 | 2.45 | 2.42 | 1.82 | 1.32 | 1.20 | 10.44 | 11.51 | 8.38 | – | – | – | – | –
NH2-ESSRDGSRHPRSHD-COOH (H-ESSRDGSRHPRSHD-OH; not fully specified; printed as NH2-ESSRDGSRHPRSHD-COOH) [Peptide E-12-D] | 1.076 | 1.77 | 1.63 | 1.48 | 1.42 | 1.85 | 2.42 | 3.77 | 5.57 | – | – | – | – | –
NH2-SQDRDSQAQSEDSERRSASASRNHRGSAQEQSRDGSR-COOH (H-SQDRDSQAQSEDSERRSASASRNHRGSAQEQSRDGSR-OH; also: citrullinated, positions not given here; listed as Homo sapiens) [Peptide S-35-R, peptide of 37 amino acids, amino acids 155 to 191 of a human filaggrin unit, 7 arginine residues; tested before and after PAD] | – | – | – | – | – | – | – | – | – | does not recognize | does not recognize | not recognized | not recognized | –
NH2-STGHSGSQHSHTTTQGRSDASRGSSGSRSTSRETRDQEQSGDGSRHSGS-COOH (H-STGHSGSQHSHTTTQGRSDASRGSSGSRSTSRETRDQEQSGDGSRHSGS-OH; also: citrullinated, positions not given here; listed as Homo sapiens) [Peptide S-47-S, peptide of 49 amino acids, amino acids 71 to 119 of a human filaggrin unit, 6 arginine residues; tested before and after PAD] | – | – | – | – | – | – | – | – | – | recognizes | recognizes | recognized | – | –
fil-gst: recombinant human filaggrin unit fused with glutathione S-transferase (GST), expressed in E. coli (protein, left off: a dimerising Fc or GST, recombinant human filaggrin unit fused with glutathione S-transferase (GST), expressed in E. coli) QSESAHGRTGTSTGGRQGSHHKQARDSSRHSTSQEGQDTIHGHPGSSSGGRQGSHYEQLVDRSGHSGSHHSHTTSQGRSDASHGHSGSRSASRQTRNDEQSGDGSRHSGSRHHEASSRADSSGHSQVGQGQSEGPRTSRNWGSSFSQDSDSQGHSEDSERWSGSASRNHHGSAQEQLRDGSRHPRSHQEDRAGHGHSADSSRQSGTRHTQTSSGGQAASSHEQARSSAGERHGSHHQQSADSSRHSGIGHGQASSAVRDSGHRGYSGSQASDNEGHSEDSDTQSVSAHGQAGSHQQSHQESARGRSGETSGHSGSFLYQVSTHE | – | – | – | – | – | – | – | – | – | recognizes | recognizes | – | does not recognize | reactivity with the pool of RA sera ([4]; PAD reacted for 60 minutes at 50° C. (lane 7), sera 1/2000): increase in reactivity; recognition by the sera from patients suffering from RA ([4]; absence of citrullination reaction (1 h, 50° C. without PAD, lane 3)): not recognized; recognition by the sera from patients suffering from RA ([4]; from 5 minutes of citrullination with PAD at 50° C. (lane 4)): detected; recognition by monoclonal antibody AHF2 ([5]; citrullinated): recognizes all the fragments; recognition by monoclonal antibody AHF2 ([5]; not citrullinated): recognizes all the fragments
